Measured values taken from PMC10784468 (Nature Communications, 2024).
Positions of bridges follow the written chain, without caps; N, C: chain ends. No end group written: not given here. FeTCPP = ferriporphyrin at the N-terminus; CAA = cis-aconitic anhydride moiety

What was measured:
GPX4 [1] = details: ref Biochemical and Biophysical Research Communications. 2017, 482, 195e201, cited from earlier work; for GPX4 inhibitory effect at 100 μM: even at 100 μM
Excerpt: page 12: Figure 9. […] The manuscript was revised accordingly. […] More explanation on this may be helpful. For instance, why small molecule inhibitors of GPX4 were not used? I suppose small molecules may penetrate tumor better since they are smaller. Beside ...

GPX4mu = details: one-to-one binding; ref Biochemical and Biophysical Research Communications. 2017, 482, 195e201; cited from earlier work
Protocol: page 12: Figure 9. […] The manuscript was revised accordingly. […] More explanation on this may be helpful. For instance, why small molecule inhibitors of GPX4 were not used? I suppose small molecules may penetrate tumor better since they are smaller. Beside ... || page 14: calculation of apparent Kd was added in the method section. Specifically, nanoparticles provide large surface area with exposed GPX4 target to achieve multivalent binding, which could remarkably enhance the binding affinity. This concept has been proven by several papers (Adv. Mater. 2023,35, 2211332; Adv Mater, 2023, doi: 10.1002/adma.202303831). […] Biophys. Res.

[2] = test system: MCF-7/MDR xenograft tumors; assay: In vivo antitumor evaluation in MCF-7/MDR xenografted model; details: for mean tumor volume at 20 days post injection / TGI rate: MCF-7/MDR xenograft, Gi-F-CAA 8 mg/kg, DOX and CPT 3 mg/kg; for mean tumor volume at 20 days post injection: six i.v. injections every 2 days, n = 6; for TGI rate: six i.v. injections, 20 days
Excerpt: Female BALB/c nude mice (~8 weeks, 18 g) were subcutaneously inoculated with 5 × 10^6 MCF-7/MDR cells resuspended in Matrigel. […] Individual tumor volume and bodyweight of mouse after different treatment was collected at 2-days intervals for analysis. Mice were killed at 20 days post treatment unless endpoints were exceeded. Moreover, tumors from all groups were harvested under euthanasia and weighed for analysis at the end of treatment.

EJ cells [3] = assay: Intracellular LPO content (MDA kit); format: cell-based
Protocol: Initially, EJ cells (5 × 10^5) were cultured in 6-well plate with a CO2 incubator overnight at 37 °C. […] Next, EJ cells were collected and washed with PBS for 3 times. Afterwards, the cell lysates were collected by centrifugation at 8000 g for 10 min at 4 °C after lysed by freeze-thaw treatment. Finally, the LPO contents were measured by thiobarbituric acid (TBA) reaction with a Malondialdehyde (MDA) Assay Kit based on the manufacturer’s instructions.

EJ cells [4] = assay: Cytotoxicity assay (CCK-8) on EJ cells
Protocol: Initially, EJ cells were seeded into 96 well plates at a density of 5 × 10^3 per well and incubated in a CO2 incubator overnight at 37 °C. Subsequently, Gi-F (pH = 7.4), Gi-F-SA (pH = 7.4), NGi-F-CAA (pH = 7.4), NGi-F-CAA (pH = 6.5), Gi-F-CAA (pH = 7.4) and Gi-F-CAA (pH = 6.5) at different concentrations (1, 2, 4, 8, 16, 32, 64, 128 and 256 μM) was added to the cells and further incubated for 48 h. Finally, the cell viability rate was calculated by (Sample wells-Blank wells)/(Control wells-Blank wells) × 100%.

GPX4 [5] = molecular target: T1, GPX4 (Homo sapiens, UniProt P36969); assay: Intracellular GPX4 activity detection; format: cell-based; set-up: endogenous in cells; host or cells: EJ bladder cancer cells
T1 sequence (P36969 1-197): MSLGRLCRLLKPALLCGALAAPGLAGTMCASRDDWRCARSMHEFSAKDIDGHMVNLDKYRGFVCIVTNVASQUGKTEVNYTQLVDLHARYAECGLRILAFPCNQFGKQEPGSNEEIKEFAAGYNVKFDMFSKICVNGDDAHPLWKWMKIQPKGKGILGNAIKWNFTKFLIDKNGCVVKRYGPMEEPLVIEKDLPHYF
Protocol: Initially, EJ cells (5 × 10^5) were cultured in 6-well plate with a CO2 incubator overnight at 37 °C. […] Next, EJ cells were collected and washed with PBS for 3 times. Afterwards, the cell lysates were collected by centrifugation at 5000 rpm for 10 min at 4 °C after ultrasonic lysis in an ice bath. Finally, the GPX4 activity were measured with a GPX Assay Kit based on the manufacturer’s instructions.

ζ-potential in PBS = format: physicochemical; details: 40 μM in PBS, pH 7.4; mean of n = 3
Protocol: Supplementary Fig. 12. ζ-potential change of Gi-F-CAA (40 μM) in PBS (0.01 M, pH 7.4 or 6.5) (n=3
experimental repeats). Experiment was independently repeated three times with similar results. Values are
(1 picture or pasted object on this page, not shown here)
Supplementary Fig. 13. ζ-potential of NGi-F-CAA, Gi-F and Gi-F-SA (pH 7.4) (40 μM) in PBS (n=3

EJ cells [6] = assay: Intracellular Fe2+ ions detection; format: cell-based
Protocol: Initially, EJ cells (5 × 10^5) were cultured in confocal dish with a CO2 incubator overnight at 37 °C. […] Afterwards, EJ cells were washed with PBS for 3 times and replaced with culture mediums.

EJ cells [7] = assay: Intracellular GSH content detection; format: cell-based
Protocol: Initially, EJ cells (5 × 10^5) were cultured in 6-well plate with a CO2 incubator overnight at 37 °C. […] Next, EJ cells were collected and washed with PBS for 3 times. Afterwards, the cell lysates were collected by centrifugation at 8000 g for 10 min at 4 °C after lysed by freeze-thaw treatment. Finally, the GSH contents were measured with a GSH Assay Kit based on the manufacturer’s instructions.

786-O xenograft tumors = assay: In vivo antitumor evaluation in large tumor model (786-O); set-up: species or system BALB/c nude mice; details: six i.v. injections at 2-days intervals, Gi-F-CAA 8 mg/kg, Bevacizumab 5 mg/kg
Gi-F-CAA = molecular target: T2, Gi-F-CAA (synthetic construct, disulfide 9-17 (inferred)); assay: MST
T2 chain: FeTCPP-LKLKLK(CAA)GACNWLPLYPCPV

Gi-F nanoparticle = molecular target: T3, Gi-F nanoparticle (synthetic construct, disulfide 9-17 (inferred); also: self-assembled nanoparticle); assay: MST
T3 chain: FeTCPP-LKLKLKGACNWLPLYPCPV

NGi-F-CAA = molecular target: T4, NGi-F-CAA (synthetic construct, cysteine pairing not given here; also: cis-aconitic anhydride on Lys); assay: MST
T4 chain: FeTCPP-LKLKLK(CAA)GACLNWPYLPCPV

CRAWYQNYCALRR [GXpep-2]
GPX4 inhibitory effect at 100 μM (GPX4 [1]): did not have an inhibitory effect
Kd (GPX4mu): 610 nM

COc1cccc2c1C(=O)c1c(O)c3c(c(O)c1C2=O)C[C@@](O)(C(=O)CO)C[C@@H]3O[C@H]1C[C@H](N)[C@H](O)[C@H](C)O1 [DOX]
mean tumor volume at 20 days post injection [2]: 1082 mm^3
TGI rate [2]: 32%
Tumor weight ([2]; mice 1): 0.73 g
Tumor weight ([2]; mice 2): 1.18 g
Tumor weight ([2]; mice 4): 0.93 g
Tumor weight ([2]; mice 6): 0.69 g

GACNWLPLYPCPV (disulfide 3-11 (inferred)) [GXpep-3]
IC50 (GPX4 [1]; read-out: IC50, GPX4 inhibitory activity): 10 µM
Kd (GPX4mu): 8200 nM

FeTCPP-LKLKLK(CAA)GACLNWPYLPCPV (disulfide) [NGi-F-CAA]
Relative MDA levels (EJ cells [3]; pH=7.4, replicate #1): 0.76
Relative MDA levels (EJ cells [3]; pH=7.4, replicate #2): 1.04
Relative MDA levels (EJ cells [3]; pH=7.4, replicate #3): 1.44
IC50 (EJ cells [4]; pH 6.5): 111 µM
IC50 (EJ cells [4]; pH 7.4): 155 µM
Relative activity of GPX4 (GPX4 [5]; EJ cells, 8 h, pH 7.4, PBS group normalized as 1, #1): 0.95
Relative activity of GPX4 (GPX4 [5]; EJ cells, 8 h, pH 7.4, PBS group normalized as 1, #2): 0.9
Relative activity of GPX4 (GPX4 [5]; EJ cells, 8 h, pH 7.4, PBS group normalized as 1, #3): 1.02
Relative activity of GPX4 (GPX4 [5]; pH=7.4, replicate #1): 0.94
Relative activity of GPX4 (GPX4 [5]; pH=7.4, replicate #2): 0.94
Relative activity of GPX4 (GPX4 [5]; pH=7.4, replicate #3): 1
Zeta potential (mV) (ζ-potential in PBS): -26.8 mV
intracellular Fe^2+ (FerroOrange fluorescence), pH 7.4 (EJ cells [6]; EJ cells, pH 7.4, 8 h): no remarkable fluorescence
Concentrations of Fe2+ ions (EJ cells [6]; pH=7.4, replicate #1): 17.875 ng/104cells
Concentrations of Fe2+ ions (EJ cells [6]; pH=7.4, replicate #2): 15.309 ng/104cells
Concentrations of Fe2+ ions (EJ cells [6]; pH=7.4, replicate #3): 13.004 ng/104cells
Relative GSH levels (EJ cells [7]; pH=7.4, replicate #1): 0.912
Relative GSH levels (EJ cells [7]; pH=7.4, replicate #2): 0.883
Relative GSH levels (EJ cells [7]; pH=7.4, replicate #3): 1.029

CRVDLQGWRRCRR [GXpep-1]
GPX4 inhibitory effect at 100 μM (GPX4 [1]): did not have an inhibitory effect
Kd (GPX4mu): 1800 nM

Bevacizumab: clinical antitumor drug Avastin (Bevacizumab) [reference compound]
tumor volume course in large tumors (~500 mm^3) (786-O xenograft tumors): temporary retarded growth and got out of control thereafter

CC[C@@]1(O)C(=O)OCc2c1cc1n(c2=O)Cc2cc3ccccc3nc2-1 [CPT]
mean tumor volume at 20 days post injection [2]: 1095 mm^3
TGI rate [2]: 39%
Tumor weight ([2]; mice 1): 0.95 g
Tumor weight ([2]; mice 2): 0.87 g
Tumor weight ([2]; mice 3): 1 g
Tumor weight ([2]; mice 4): 0.65 g
Tumor weight ([2]; mice 5): 0.9 g
Tumor weight ([2]; mice 6): 0.74 g

B1: GPX4 (protein)
chain: SLGRLCRLLKPALLCGALAAPGLAGTMCASRDDWRCARSMHEFSAKDIDGHMVNLDKYRGFVCIVTNVASQUGKTEVNYTQLVDLHARYAECGLRILAFPCNQFGKQEPGSNEEIKEFAAGYNVKFDMFSKICVNGDDAHPLWKWMKIQPKGKGILGNAIKWNFTKFLIDKNGCVVKRYGPMEEPLVIEKDLPHYF
Kd (Gi-F-CAA): ~1680 nM
Kd (Gi-F nanoparticle): ~30.3 nM
Kd (NGi-F-CAA): ~17.6 µM
